Source: PubChem BioAssay (NCI)
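Values below derive from 48-hour exposures of cells grown in 96-well plates, with endpoints linearly interpolated between the two concentrations bracketing the appropriate inhibition level. The concentration for 50% growth inhibition is given as GI50. TGI is the concentration that stops growth completely.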

How the values were obtained:
Assay in all cases: DTP human tumour cell line panel, 48 h
HL-60(TB) leukemia = system: HL-60(TB) leukemia
SW-620 colon = system: SW-620 colon
OVCAR-8 ovarian = system: OVCAR-8 ovarian
SR leukemia = system: SR leukemia
UACC-62 melanoma = system: UACC-62 melanoma
CCRF-CEM leukemia = system: CCRF-CEM leukemia
NCI-H23 lung = system: NCI-H23 lung
NCI-H522 lung = system: NCI-H522 lung
SF-268 CNS = system: SF-268 CNS
MDA-MB-435 = system: MDA-MB-435
M14 melanoma = system: M14 melanoma
HOP-92 NSCLC = system: HOP-92 NSCLC
SK-OV-3 ovarian = system: SK-OV-3 ovarian
COLO 205 colon = system: COLO 205 colon
SK-MEL-28 melanoma = system: SK-MEL-28 melanoma
KM12 colon = system: KM12 colon
U251 CNS = system: U251 CNS
NCI-H226 lung = system: NCI-H226 lung
HOP-62 NSCLC = system: HOP-62 NSCLC
PC-3 prostate = system: PC-3 prostate
HS 578T breast = system: HS 578T breast
TK-10 renal = system: TK-10 renal
SN12C renal = system: SN12C renal
NCI-H460 lung = system: NCI-H460 lung
SK-MEL-5 melanoma = system: SK-MEL-5 melanoma
A549 NSCLC = system: A549 NSCLC
RPMI-8226 leukemia = system: RPMI-8226 leukemia
BT-549 breast = system: BT-549 breast
MDA-MB-231 breast = system: MDA-MB-231 breast
786-0 renal = system: 786-0 renal
SF-295 CNS = system: SF-295 CNS
OVCAR-5 ovarian = system: OVCAR-5 ovarian
OVCAR-3 ovarian = system: OVCAR-3 ovarian
ACHN renal = system: ACHN renal
HCT-116 colon = system: HCT-116 colon
SNB-75 CNS = system: SNB-75 CNS
T-47D breast = system: T-47D breast
K-562 leukemia = system: K-562 leukemia
UACC-257 melanoma = system: UACC-257 melanoma
LOX IMVI melanoma = system: LOX IMVI melanoma
DU-145 prostate = system: DU-145 prostate
SF-539 CNS = system: SF-539 CNS
RXF 393 renal = system: RXF 393 renal
UO-31 renal = system: UO-31 renal
SK-MEL-2 melanoma = system: SK-MEL-2 melanoma
MOLT-4 leukemia = system: MOLT-4 leukemia
IGROV1 ovarian = system: IGROV1 ovarian
HT29 colon = system: HT29 colon
MALME-3M melanoma = system: MALME-3M melanoma
HCT-15 colon = system: HCT-15 colon
EKVX NSCLC = system: EKVX NSCLC
HCC-2998 colon = system: HCC-2998 colon
MCF7 breast = system: MCF7 breast
NCI/ADR-RES ovarian = system: NCI/ADR-RES ovarian
OVCAR-4 ovarian = system: OVCAR-4 ovarian
SNB-19 CNS = system: SNB-19 CNS
CAKI-1 renal = system: CAKI-1 renal

Cc1cc(S(N)(=O)=O)c(S/C(=N\Nc2ccc([N+](=O)[O-])cc2)c2ccc3ccccc3c2)cc1Cl
GI50 (HL-60(TB) leukemia): > 100 µM | TGI (HL-60(TB) leukemia): > 100 µM | GI50 (SW-620 colon): 33.4 µM | TGI (SW-620 colon): > 100 µM | GI50 (OVCAR-8 ovarian): 14 µM | TGI (OVCAR-8 ovarian): > 100 µM | GI50 (SR leukemia): 42.6 µM | TGI (SR leukemia): > 100 µM | GI50 (UACC-62 melanoma): 15.6 µM | TGI (UACC-62 melanoma): 28.9 µM | GI50 (CCRF-CEM leukemia): 50.4 µM | TGI (CCRF-CEM leukemia): > 100 µM | GI50 (NCI-H23 lung): 16.4 µM | TGI (NCI-H23 lung): 30.2 µM | GI50 (NCI-H522 lung): 22.9 µM | TGI (NCI-H522 lung): > 100 µM | GI50 (SF-268 CNS): 10.1 µM | TGI (SF-268 CNS): 44.4 µM | GI50 (MDA-MB-435): 22.2 µM | TGI (MDA-MB-435): 64.9 µM | GI50 (M14 melanoma): 44.1 µM | TGI (M14 melanoma): > 100 µM | GI50 (HOP-92 NSCLC): 1.32 µM | TGI (HOP-92 NSCLC): 19.6 µM | GI50 (SK-OV-3 ovarian): 20.4 µM | TGI (SK-OV-3 ovarian): 55.8 µM | GI50 (COLO 205 colon): 84 µM | TGI (COLO 205 colon): > 100 µM | GI50 (SK-MEL-28 melanoma): 35.1 µM | TGI (SK-MEL-28 melanoma): > 100 µM | GI50 (KM12 colon): 25.2 µM | TGI (KM12 colon): 99 µM | GI50 (U251 CNS): 19.7 µM | TGI (U251 CNS): 59.4 µM | GI50 (NCI-H226 lung): 18.4 µM | TGI (NCI-H226 lung): 38.3 µM | GI50 (HOP-62 NSCLC): 22.8 µM | TGI (HOP-62 NSCLC): 68.5 µM | GI50 (PC-3 prostate): 14.2 µM | TGI (PC-3 prostate): 27.4 µM | GI50 (HS 578T breast): 2.19 µM | TGI (HS 578T breast): 8.86 µM | GI50 (TK-10 renal): 7.46 µM | TGI (TK-10 renal): 31.7 µM | GI50 (SN12C renal): 18.6 µM | TGI (SN12C renal): 44.1 µM | GI50 (NCI-H460 lung): 18.5 µM | TGI (NCI-H460 lung): > 100 µM | GI50 (SK-MEL-5 melanoma): 16.5 µM | TGI (SK-MEL-5 melanoma): 36.8 µM | GI50 (A549 NSCLC): 54.1 µM | TGI (A549 NSCLC): > 100 µM | GI50 (RPMI-8226 leukemia): 37.7 µM | TGI (RPMI-8226 leukemia): > 100 µM | GI50 (BT-549 breast): 20.5 µM | TGI (BT-549 breast): 69.7 µM | GI50 (MDA-MB-231 breast): 13.4 µM | TGI (MDA-MB-231 breast): 29.6 µM | GI50 (786-0 renal): 18.7 µM | TGI (786-0 renal): 42.9 µM | GI50 (SF-295 CNS): 20 µM | TGI (SF-295 CNS): 66.2 µM | GI50 (OVCAR-5 ovarian): 14.8 µM | TGI (OVCAR-5 ovarian): 27.9 µM | GI50 (OVCAR-3 ovarian): 17.5 µM | TGI (OVCAR-3 ovarian): 58.5 µM | GI50 (ACHN renal): 17 µM | TGI (ACHN renal): 30.7 µM | GI50 (HCT-116 colon): 4.67 µM | TGI (HCT-116 colon): > 100 µM | GI50 (SNB-75 CNS): 56.7 µM | TGI (SNB-75 CNS): > 100 µM | TGI (T-47D breast): 83.7 µM | GI50 (K-562 leukemia): 28 µM | TGI (K-562 leukemia): > 100 µM | GI50 (UACC-257 melanoma): 30.1 µM | TGI (UACC-257 melanoma): 78.3 µM | GI50 (LOX IMVI melanoma): 20.3 µM | TGI (LOX IMVI melanoma): 40.9 µM | GI50 (DU-145 prostate): 13.2 µM | TGI (DU-145 prostate): 43 µM | GI50 (SF-539 CNS): 4.1 µM | TGI (SF-539 CNS): 18.7 µM | GI50 (RXF 393 renal): 8.69 µM | TGI (RXF 393 renal): 54.8 µM | GI50 (UO-31 renal): 56 µM | TGI (UO-31 renal): > 100 µM | GI50 (SK-MEL-2 melanoma): > 100 µM | TGI (SK-MEL-2 melanoma): > 100 µM | GI50 (MOLT-4 leukemia): 73.9 µM | TGI (MOLT-4 leukemia): > 100 µM | GI50 (IGROV1 ovarian): 54.3 µM | TGI (IGROV1 ovarian): > 100 µM | GI50 (HT29 colon): 73.2 µM | TGI (HT29 colon): > 100 µM | GI50 (MALME-3M melanoma): 11.7 µM | TGI (MALME-3M melanoma): 25.7 µM | GI50 (HCT-15 colon): 20.1 µM | TGI (HCT-15 colon): 41 µM | GI50 (EKVX NSCLC): 17.9 µM | TGI (EKVX NSCLC): 64.3 µM | GI50 (HCC-2998 colon): 14.7 µM | TGI (HCC-2998 colon): 30.1 µM | GI50 (MCF7 breast): 19.9 µM | TGI (MCF7 breast): > 100 µM | GI50 (NCI/ADR-RES ovarian): 13.9 µM | TGI (NCI/ADR-RES ovarian): 41.9 µM | GI50 (OVCAR-4 ovarian): 61.1 µM | TGI (OVCAR-4 ovarian): > 100 µM | GI50 (SNB-19 CNS): 67.5 µM | TGI (SNB-19 CNS): > 100 µM | GI50 (CAKI-1 renal): 17.5 µM | TGI (CAKI-1 renal): 48.8 µM
